Measurements taken from patent publication US20250019375A1, “BENZOTHIAZOLE DYES” (Detect, Inc., priority 2023, published 2025).

Assays:
[1] = Accelerated stability of lyophilized dye, assayed by HPLC; type: physicochemical
Description: It was also determined that Compound 3 is stable under accelerated stability conditions from lyophilized chemistry (FIG. 5). As assayed by HPLC, Compound 3 is stable under these conditions at the 3-month time point (98.7±0.33% remaining), corresponding to 6 months stability at room temperature (15-30° C.).

[2] = test system: Neisseria gonorrhoeae (AQ10); test: qLAMP assay, Neisseria gonorrhoeae (AQ10), time to positive (Tp); type: biochemical
Description: Compounds were added to the LAMP reaction mixture containing target-specific primers, dNTPs, DNA polymerase, reverse transcriptase, and the target RNA sequence. This reaction mixture was incubated at 62° C. (or the specified temperature (FIG. 4)) for at least 50 minutes and the increase in fluorescence was assessed to determine the time to positivity (Tp). Data shown in FIGS. 1A-B support that these compounds are compatible with LAMP assays at concentrations up to 16 μM.
For the Neisseria gonorrhoeae (AQ10), there is detrimental impact on Tp observed with Compound 5 at ≥8 μM where a delay in Tp is observed.
Data shown is under clean and eluted vaginal swabs (contrived conditions). Good performance is observed at ≥61° C. There is detrimental impact on performance at <60° C. (delay in Tp).

[3] = test system: double stranded DNA (dsDNA); test: Absorption/emission spectra of dyes with dsDNA; type: physicochemical; settings: for Stokes shift: 2 μM dye + 2 μM hairpin DNA; for Stokes shift / λem: pH 8.8 isoamplification buffer; for λabs: absorption recorded at 25±2° C.; for λem: fluorescence at 62±2° C.
Description: FIG. 6A-F show absorption/emission spectra of dyes with double stranded DNA (dsDNA).
Fluorescence readings (FIGS. 6A-F) were performed using 10 mm path length, 700 μL quartz cuvettes on Horiba Fluorolog-Q fluorometer instrument. All measurements were taken at elevated temperature (62±2° C.) in pH 8.8 isoamplification buffer containing 20 mM Tris-HCl. For each measurement, 2 μM of dye was combined with 2 μM of hairpin DNA. Absorption spectra were recorded at ambient temperature (25±2° C.) on a DeNovix DS-11 spectrophotometer instrument. Normalized spectra are shown for clarity. The benzothiazole dye compounds have large Stokes shift >40 nm, which allows a substantial portion of the output fluorescence to pass through the filter covering the photodiode detection component of the device.

[4] = clean and eluted vaginal swabs (contrived conditions)

SMILES | Stokes shift [3] | λabs [3] | λem [3] | % remaining ([1]; 40° C., lyophilized, 3-month time point, HPLC) | corresponding stability at room temperature ([1]; room temperature (15-30° C.), extrapolated from 3 months accelerated conditions) | temperature of good performance [2, 4] | temperature with detrimental impact on performance (delay in Tp) [2, 4] | concentration with detrimental impact on Tp (delay in Tp) ([2]; Neisseria gonorrhoeae (AQ10) LAMP, 62° C.)
COc1ccc2c(c1)S/C(=C\c1cc[n+](C)c(N3CCOCC3)c1)N2C [Compound 3] | 50 nm | 448 nm | 498 nm | 98.7±0.33% | 6 months | ≥ 61 °C | < 60 °C | 
COc1ccc2c(c1)S/C(=C\c1cc[n+](C)c(-c3ccccc3)c1)N2C [Compound 5] |  |  |  |  |  |  |  | ≥ 8 µM

More lines, main results first:

Stokes shift [3] | λabs [3] | λem [3] | SMILES | % remaining ([1]; 40° C., lyophilized, 3-month time point, HPLC) | corresponding stability at room temperature ([1]; room temperature (15-30° C.), extrapolated from 3 months accelerated conditions) | temperature of good performance [2, 4] | temperature with detrimental impact on performance (delay in Tp) [2, 4] | concentration with detrimental impact on Tp (delay in Tp) ([2]; Neisseria gonorrhoeae (AQ10) LAMP, 62° C.)
38 nm | 442 nm | 480 nm | CN1/C(=C/c2cc[n+](C)c(N3CCOCC3)c2)Sc2ccccc21 [Compound 8] |  |  |  |  | 
38 nm | 443 nm | 481 nm | CN(C)c1cc(/C=C2\Sc3ccccc3N2C)cc[n+]1C [Compound 10] |  |  |  |  | 
43 nm | 510 nm | 553 nm | COc1ccc2c(c1)S/C(=C\c1cc[n+](C)c3ccccc13)N2C [Compound 11] |  |  |  |  | 
